Results from US6534480B2, “Compositions for increasing energy in vivo” (Bioenergy Inc., priority 1999, dated 2003).

Experiments:
[1] = Exercise induced angina, single patient with coronary artery disease; type: in vivo, human
From the text: A patient with a history of coronary artery disease, status post triple coronary artery bypass, experienced exercise induced angina. Their present medications are: enalapril (an angiotensin converting enzyme inhibitor), carvedilol (a β blocking agent), nitroglycerine patch and nitroglycerine tablets sublingual as needed. […] The patient performed poorly on two stress tests. Their exercise regimen consisted of a daily walk. Due to the development of angina, the patient was able to walk less than one mile per day, at which point they took sublingual nitroglycerine. The patient was given oral D-ribose dissolved in about 250 cc. of water. Over a six-month period, the patient received intermittent doses of 5-10 grams per day of D-ribose. […] When the ribose was discontinued, their pre-ribose, anginal-inducing exercise state recurred, which necessitated the use of supplemental oral nitroglycerine.

[2] = Sprint power output and well-being in normal untrained subjects (planned); type: in vivo, human; conditions: 5 grams of D-ribose in 200 ml. of water after each sprint bout
From the text: D-ribose, given immediately before and during exercise, can provide a benefit to those subjects who have not been previously trained. Four healthy, normal male volunteers will be tested for sprint power output on an exercycle, as for Example 2 above. Each subject will serve as their own control. Between the sprint bouts, the subjects will cycle slowly and continuously. Total test time will be one hour, with four sprint bouts during the test. Following the initial baseline test and following each sprint bout, the subjects will be given 5 grams of D-ribose in 200 ml. of water or a similar tasting placebo (glucose). Sprint power output will be tested 15 minutes after each ingesting of the test solutions. Each subject will undergo two sessions, one week apart, one with ribose and one with placebo, in randomized order. The placebo will be sweetened with glucose in order to be indistinguishable from the ribose solution.

[3] = Cycle sprint power output in healthy fit subjects (Ribose Athlete Study); type: in vivo, human; conditions: for Mean Power Per Kilogram, Average / Peak Power Per Kilogram, Average / Total Power Per Kilogram, Average: average of sessions 1-6
Procedure: Four healthy, fit subjects in the age range 24 to 26 years of age were tested. The group was selected to be homogeneous regarding fitness level, gender and mean age with no known metabolic, neuronal, endocrine or cardiopulmonary disorders. All were capable of or had experience with cycling. The study protocol included four phases: (1) an initial baseline phase consisting of no exercise session; (2) a loading phase including three days of administration of either D-ribose or placebo (glucose) three times per day; (3) a training phase of three days employing exercise sessions characterized by serial (N=6) bouts of short (10 second) high-intensity cycle sprints at 7% body mass resistance with 50 second rest periods between sprints twice per day (morning and afternoon), and (4) a recovery phase for a period of 48 hours after the final training session. FIG. 1 is a diagram of a single cycle sprint bout. Two subjects were randomly selected for inclusion into the placebo or ribose group. Ribose or glucose was administered orally in a 250 ml iso-osmotic solution containing 10.0 grams of either ribose or placebo three times per day for three days preceding training (loading phase) and for three days during training (training phase). One-half liter isotonic electrolyte solution was given immediately post exercise and again 30 minutes later to avoid dehydration.

ATP = conditions: heart recovering from ischemia, intravenous perfusion; cited from earlier work
adenine salvage pathway = assay: Adenine salvage (formation of ATP) in perfused resting rat plantaris muscle, ribose dose response; type: in vivo, Sprague-Dawley rats; conditions: for salvage of adenine (formation of ATP), Observed: 30 minutes
Procedure: It has been theorized but not objectively shown that ribose, via PRPP synthesis, increases the rate of ATP synthesis via the nucleotide salvage pathway. […] The muscle was perfused with reconstituted blood medium at ˜40 ml/min, providing tissue perfusion of approximately 0.65 ml/min. Varying concentrations of D-ribose were added to the perfusate to bring the concentration to 0.156 mM, 0.5 mM, 1.58 mM, 5.0 mM and 15.0 mM. The muscle was perfused for 30 minutes. A minimum of two rats was used for analysis at each dose of ribose tested. Following perfusion, muscle sections were quickly dissected from the limb and freeze-clamped with aluminum tongs chilled in liquid nitrogen. Muscle sections were lyophilized and reconstituted in distilled water for subsequent-separation of adenine nucleotides by reverse-phase high pressure liquid chromatography. Results are expressed as salvage of adenine (i.e., formation of ATP) in nanomoles salvaged per gram wet weight of muscle per hour (nM/gm/hr).

[4] = ribose group mean, sprint session 1
[5] = ribose group mean, sprint session 2
[6] = ribose group mean, sprint session 3
[7] = ribose group mean, sprint session 4
[8] = ribose group mean, sprint session 5
[9] = ribose group mean, sprint session 6

## O=C[C@H](O)[C@H](O)[C@H](O)CO [Ribose, D-ribose]
[1]; oral D-ribose 5-10 grams per day
  patient's subjective evaluation of the ribose treatment: much less angina pain
[1]; oral D-ribose 5-10 grams per day intermittent over six months, before: less than one mile per day
  exercise tolerance (daily walk) without nitroglycerine: two miles per day
[2]
  subjective feeling of well being: subjectively higher feeling of well being
[2]; sustained mild exercise
  sprint power output after ribose vs placebo: higher power output
[3]; ribose group mean
  Mean Power Per Kilogram, Average: 8.2 Watts
  Peak Power Per Kilogram, Average: 9.6 Watts
  Total Power Per Kilogram, Average: 81.6
[3]; [4]
  Peak Power Per Kilogram: 8.9 Watts
  Total Power Per Kilogram: 79.3
[3]; ribose group mean, sprint session 1, 10.0 grams oral three times per day
  Mean Power Per Kilogram: 7.8 Watts
[3]; [5]
  Mean Power Per Kilogram: 8.4 Watts
  Peak Power Per Kilogram: 9.7 Watts
  Total Power Per Kilogram: 83.3
[3]; [6]
  Mean Power Per Kilogram: 8.5 Watts
  Peak Power Per Kilogram: 10.0 Watts
  Total Power Per Kilogram: 84.2
[3]; [7]
  Mean Power Per Kilogram: 8.3 Watts
  Peak Power Per Kilogram: 9.9 Watts
  Total Power Per Kilogram: 82.8
[3]; [8]
  Mean Power Per Kilogram: 8.2 Watts
  Peak Power Per Kilogram: 9.8 Watts
  Total Power Per Kilogram: 81.8
[3]; [9]
  Mean Power Per Kilogram: 7.8 Watts
  Peak Power Per Kilogram: 9.3 Watts
  Total Power Per Kilogram: 77.9
[3]; ribose group vs placebo group
  Mean Power Per Kilogram, average relative to placebo (100.0%): 109.0%
  Peak Power Per Kilogram, average relative to placebo (100.0%): 109.9%
  Total Power Per Kilogram, average relative to placebo (100.0%): 109.5%
[3]; ribose vs placebo, Tables II to IV
  increase in performance: 9%
[3]; subject 2R
  Mean Power Per Kilogram, Average: 7.5 Watts
  Peak Power Per Kilogram, Average: 8.8 Watts
  Total Power Per Kilogram, Average: 75.1
[3]; subject 2R, sprint session 1
  Mean Power Per Kilogram: 6.9 Watts
  Peak Power Per Kilogram: 7.9 Watts
  Total Power Per Kilogram: 71.9
[3]; subject 2R, sprint session 2
  Mean Power Per Kilogram: 7.5 Watts
  Peak Power Per Kilogram: 8.8 Watts
  Total Power Per Kilogram: 74.7
[3]; subject 2R, sprint session 3
  Mean Power Per Kilogram: 7.8 Watts
  Peak Power Per Kilogram: 9.2 Watts
  Total Power Per Kilogram: 77.1
[3]; subject 2R, sprint session 4
  Mean Power Per Kilogram: 7.6 Watts
  Peak Power Per Kilogram: 9.0 Watts
  Total Power Per Kilogram: 75.6
[3]; subject 2R, sprint session 5
  Mean Power Per Kilogram: 7.9 Watts
  Peak Power Per Kilogram: 9.4 Watts
  Total Power Per Kilogram: 78.1
[3]; subject 2R, sprint session 6
  Mean Power Per Kilogram: 7.4 Watts
  Peak Power Per Kilogram: 8.7 Watts
  Total Power Per Kilogram: 73.4
[3]; subject 3R
  Mean Power Per Kilogram, Average: 8.8 Watts
  Peak Power Per Kilogram, Average: 10.3 Watts
  Total Power Per Kilogram, Average: 88.0
[3]; subject 3R, sprint session 1
  Mean Power Per Kilogram: 8.7 Watts
  Peak Power Per Kilogram: 9.8 Watts
  Total Power Per Kilogram: 86.8
[3]; subject 3R, sprint session 2
  Mean Power Per Kilogram: 9.2 Watts
  Peak Power Per Kilogram: 10.6 Watts
  Total Power Per Kilogram: 91.9
[3]; subject 3R, sprint session 3
  Mean Power Per Kilogram: 9.1 Watts
  Peak Power Per Kilogram: 10.7 Watts
  Total Power Per Kilogram: 91.3
[3]; subject 3R, sprint session 4
  Mean Power Per Kilogram: 9.0 Watts
  Peak Power Per Kilogram: 10.7 Watts
  Total Power Per Kilogram: 90.0
[3]; subject 3R, sprint session 5
  Mean Power Per Kilogram: 8.5 Watts
  Peak Power Per Kilogram: 10.1 Watts
  Total Power Per Kilogram: 85.4
[3]; subject 3R, sprint session 6
  Mean Power Per Kilogram: 8.2 Watts
  Peak Power Per Kilogram: 9.9 Watts
  Total Power Per Kilogram: 82.5
ATP
  recovery of ATP levels: enhanced
Adenine salvage pathway; 0.158 mM ribose
  adenine salvage relative to zero mM ribose: doubles
  salvage of adenine, Saturation Kinetics with Base: 85.82 nM/gm/hr
Adenine salvage pathway; 0.158 mM ribose in perfusate
  salvage of adenine (formation of ATP), Observed: 113.0 nM/gm/hr
Adenine salvage pathway; 0.500 mM ribose
  salvage of adenine, Saturation Kinetics with Base: 118.68 nM/gm/hr
Adenine salvage pathway; 0.500 mM ribose in perfusate
  salvage of adenine (formation of ATP), Observed: 110.0 nM/gm/hr
Adenine salvage pathway; 1.000 mM ribose
  salvage of adenine, Saturation Kinetics with Base: 154.12 nM/gm/hr
Adenine salvage pathway; 1.580 mM ribose
  salvage of adenine, Saturation Kinetics with Base: 183.51 nM/gm/hr
Adenine salvage pathway; 1.580 mM ribose in perfusate
  salvage of adenine (formation of ATP), Observed: 188.5 nM/gm/hr
Adenine salvage pathway; 2.000 mM ribose
  salvage of adenine, Saturation Kinetics with Base: 199.74 nM/gm/hr
Adenine salvage pathway; 2.500 mM ribose
  salvage of adenine, Saturation Kinetics with Base: 215.29 nM/gm/hr
Adenine salvage pathway; 3.000 mM ribose
  salvage of adenine, Saturation Kinetics with Base: 227.85 nM/gm/hr
Adenine salvage pathway; 5.000 mM ribose
  salvage of adenine, Saturation Kinetics with Base: 260.68 nM/gm/hr
Adenine salvage pathway; 5.000 mM ribose in perfusate
  salvage of adenine (formation of ATP), Observed: 250.0 nM/gm/hr
Adenine salvage pathway; 5.000 mM ribose in perfusate, listed as ribose
  salvage of adenine (formation of ATP), Observed: 250 nM/gm/hr
Adenine salvage pathway; 15.000 mM ribose
  salvage of adenine, Saturation Kinetics with Base: 310.37 nM/gm/hr
Adenine salvage pathway; 15.000 mM ribose in perfusate
  salvage of adenine (formation of ATP), Observed: 315.5 nM/gm/hr
